Literature values, collected in patent US20040062779A1, “Dermatologic composition using ultra-fine/micronized 1-ascorbic acid and other antioxidant ingredients in a stabilized anhydrous vehicle” (priority 2002, published 2004).

System: collagen synthesis
Settings: in-vitro; Pinnell, Yale J. Biol. Med. 58:554 (1985)

## O=C1O[C@H]([C@@H](O)CO)C(O)=C1O [ascorbic acid]
  collagen synthesis: stimulates collagen synthesis
